“And” between values parts separate entries of the source, which are not always exact repeats. Equal values may be shown once. Values belong to the molecule of their own block, whether it stands above or below them.
Legend:
[1] = In vitro digestion stability of 7,8-DHF (simulated saliva, gastric fluid, intestinal fluid); assay type: in vitro ADME; conditions: 7,8‐DHF combined with the named flavonoid
Experimental: The in vitro digestion model proposed by Versantvoort et al.'s report was modified as follows (Versantvoort et al., [2005]): […] The pH of the system was then adjusted to 7.5 and simulated intestinal fluid containing pancreatin and bile salts was added for 2 h of stirring. During the process, a certain amount of the digested liquid sample from the simulated saliva, gastric fluid, and intestinal fluid were taken, and ethanol was added to precipitate and inactivate the enzymes. […] A 1 mL aliquot was placed in a high-speed centrifuge tube (3K15, Sigma) and centrifuged at 4°C, 11000 × g for 15 min.

Caco‐2 cells [2] = assay: Uptake amount of 7,8-DHF in Caco-2 cells at the end of transport; assay type: in vitro ADME, human
Experimental: The cell surface was rapidly washed three times with ice-cold HBSS solution. The cells were harvested using a cell scraper and resuspended in 1.0 mL of 0.1% extraction solution (phosphate: methanol = 1:1, v/v) before being homogenized in an ultrasonicator.

Caco‐2 monolayers = assay: Bi-directional transepithelial transport of 7,8-DHF across Caco-2 monolayers with flavonoids screened as P-gp inhibitors (Papp, ER); assay type: in vitro ADME, human; conditions: for Modulatory effect on 7,8‐DHF transport: flavonoid equimolar with 7,8‐DHF 10 μmol/L; for Modulatory effect on 7,8‐DHF transport: key: + indicates that the inhibitor has a significant effect on 7,8‐DHF transport; − indicates that the inhibitor has no significant effect on 7,8‐DHF transport
Experimental: (§1) For this experiment, the 7,8‐DHF sample was first dissolved in a small amount of dimethyl sulfoxide (DMSO) and then diluted with HBSS to a working concentration of 10 μmol/L. The final DMSO concentration in the working solution was controlled to be less than 0.5%. […] Flavonoid samples were added to the AP and BL sides at equimolar concentrations with 7,8‐DHF (the sample concentration in HBSS solution was 10 μmol/L). Prior to transport, dietary flavonoids were pretreated on the AP side for 30 min. Then, these flavonoid reagents were removed, and a 0.5 mL HBSS solution containing various dietary flavonoids with 7,8‐DHF (concentration of 10 μmol/L) was added to the AP side, while 1.5 mL of blank HBSS was added to the BL side. Conversely, 1.5 mL of HBSS solution containing various dietary flavonoids with 7,8‐DHF (10 μmol/L) was added to the BL side, and 0.5 mL of blank HBSS was added to the AP side.
(§2) The magnitude of the apparent permeability coefficients (P app, cm/s) and efflux ratio (ER) reflects the ability of the test substance to pass through the monolayer cells and the speed of absorption.
(§3) (4) ER=PappAB/PappBA where P app AB is the apparent permeability coefficient for AP → BL transport, and P app BA is the apparent permeability coefficient for BL → AP transport.
(§4) Effect of different concentrations of specific flavonoids on 7,8‐DHF transepithelial transport was investigated. The operating procedure was followed by above section, with the exception that specific dietary flavonoid samples were added to the AP and BL sides at varying molar ratios with 7,8‐DHF (2:1, 1:1, 1:2, and 1:4). The specific dietary flavonoids were dissolved in HBSS while controlling the DMSO concentration to be less than 0.5%.

[3] = Stability of 7,8-DHF in HBSS; assay type: physicochemical; conditions: HBSS pH 7.4, 37°C, 10 μmol/L
Experimental: (§5) Simultaneously, 0.5 mL of the aforementioned solution was added to the AP side of the Transwell culture plate containing Caco‐2 cells, while 1.5 mL of blank HBSS added to the BL side. […] The Caco‐2 cell stability test was performed under both inhibitory and non‐inhibitory conditions, and the 7,8‐DHF content in the samples was determined.
(§6) A volume of 200 μL of receiving solution was transferred into a 1 mL centrifuge tube, followed by adding 10 μL of internal standard solution (10 μg/mL apigenin) and 200 μL of methanol. […] Thereafter, 5 μL of the supernatant was injected into the UPLC system. The UPLC system used in this study was a Waters ACQUITY UPLC H‐CLASS series instrument (Waters) equipped with a quaternary solvent manager, a sample manager‐flow through needle, a chromatographic column heater and a PDA eλ detector. […] The mobile phase comprised of methanol (solvent A) and 0.05% trifluoroacetic acid of ultrapure water (solvent B). The gradient elution program was as follows: 20% solvent A (0~1 min), 20%~80% solvent A (1~5 min), 80%~100% solvent A (5~7 min), 100 ~ 20% solvent A (7~8 min), and 20% solvent A (8~9 min). The flow rate maintained at 0.2 mL/min, the temperature was set to 37°C, and the PDA detector wavelength was set at 330 nm.

[4] = Stability (recovery) of 7,8-DHF in Caco-2 cells with or without inhibitors; conditions: human, Caco-2, pH 7.4
Experimental: as §5, §6

Caco‐2 cells [5] = assay: as above; conditions: 60 and 240 min incubation
Experimental: as §5, §6

Caco‐2 cells [6] = assay: Cytotoxicity, CCK-8 assay; assay type: cell-based, human; conditions: 24 h
Experimental: To determine the cytotoxicity of 7,8‐DHF for transport experiments, a CCK‐8 assay was carried out (Han et al., [2023]). A total of 200 μL culture medium containing Caco‐2 cells at a density of 3 × 10^4 cells/mL was seeded in a 96‐well plate and incubated for 24 h to allow for adherence. After the incubation period, the culture medium was removed and replaced with 200 μL fresh medium containing 7,8‐DHF at concentrations of 1, 10, 50, 100, and 300 μmol/L. Additionally, 200 μL medium without 7,8‐DHF was added as the control group, while medium without cells was used as the blank group. Following 24 h of drug stimulation, 10 μL CCK‐8 reagent was added to each well followed by another 2 h incubation. The absorbance was measured at 450 nm wavelength using an enzyme‐linked immunosorbent assay reader (Eonmei, BioTek). Each sample was repeated five times, and the cell survival rate was calculated using the following formula: (2) Cell survival rate%=ODsample group−ODblank group/ODcontrol group−ODblank group×100 where OD represents the absorbance of each sample at 450 nm wavelength.

[7] = design: method as in Xiao and Högger (2015); conditions: DMEM solutions during Caco‐2 cell incubation; ref Xiao and Högger (2015); cited from earlier work
[8] = design: method as in Liu et al., 2013; conditions: C57BL/6 mice, ref Liu et al., 2013; cited from earlier work
in vitro = in vitro ADME, human; conditions: human, Caco-2
Experimental: as §1, §2, §3, §4

[9] = human, Caco-2, 150 min, 10 μmol/L

Effect of combined flavonoid on retention of 7,8‐DHF in simulated in vitro digestion [1]: no significant effects were observed
Uptake amount of 7,8‐DHF in Caco‐2 cells with the named flavonoid (Caco‐2 cells [2]; molar concentration ratio flavonoid to 7,8‐DHF 1:2): did not increase the uptake
Uptake amount of 7,8‐DHF in Caco‐2 cells with the named flavonoid (Caco‐2 cells [2]; molar concentration ratio flavonoid to 7,8‐DHF 4:1): did not increase the uptake
Compound: O=c1c(O)c(-c2ccc(O)c(O)c2)oc2cc(O)cc(O)c12 [Quercetin, quercetin]
Modulatory effect on 7,8‐DHF transport (Caco‐2 monolayers; verapamil 100 μmol/L): +

ER of 7,8‐DHF in presence of the named inhibitor (Caco‐2 monolayers; 7,8‐DHF 10 μmol/L, flavonoid equimolar (1:1, 10 μmol/L), verapamil 100 μmol/L): 1.34
P app AB of 7,8‐DHF in presence of the named inhibitor (Caco‐2 monolayers; 7,8‐DHF 10 μmol/L, flavonoid equimolar (1:1, 10 μmol/L), verapamil 100 μmol/L, AP → BL, 150 min): 1.21 ± 0.03 ×10^−6 cm/s
ER of 7,8‐DHF in presence of the named inhibitor (Caco‐2 monolayers; 7,8‐DHF 10 μmol/L, flavonoid equimolar (1:1, 10 μmol/L), verapamil 100 μmol/L, listed as epigallocatechin gallate): less than 1.5
Compound: O=C(O[C@@H]1Cc2c(O)cc(O)cc2O[C@@H]1c1cc(O)c(O)c(O)c1)c1cc(O)c(O)c(O)c1 [EGCG, epigallocatechin gallate]
P app BA of 7,8‐DHF in presence of the named inhibitor (Caco‐2 monolayers; 7,8‐DHF 10 μmol/L, flavonoid equimolar (1:1, 10 μmol/L), verapamil 100 μmol/L, BL → AP, 150 min): 1.63 ± 0.05 ×10^−6 cm/s and 1.62 ± 0.05 ×10^−6 cm/s
Modulatory effect on 7,8‐DHF transport (Caco‐2 monolayers; verapamil 100 μmol/L): +

Compound: O=c1c(O)c(-c2ccc(O)c(O)c2)oc2cc(O)ccc12 [Fisetin, fisetin]
Modulatory effect on 7,8‐DHF transport (Caco‐2 monolayers; verapamil 100 μmol/L): +

Compound: O=c1cc(-c2ccc(O)c(O)c2)oc2cc(O)c([C@@H]3O[C@H](CO)[C@@H](O)[C@H](O)[C@H]3O)c(O)c12 [Isoorientin, isoorientin]
Modulatory effect on 7,8‐DHF transport (Caco‐2 monolayers; verapamil 100 μmol/L): +

Compound: O=c1c(-c2ccc(O)cc2)coc2cc(O)cc(O)c12 [Genistein, genistein]
Modulatory effect on 7,8‐DHF transport (Caco‐2 monolayers; verapamil 100 μmol/L): +

P app AB of 7,8‐DHF in presence of the named inhibitor (Caco‐2 monolayers; [9]): 1.16 ± 0.02 ×10^−6 cm/s
P app BA of 7,8‐DHF in presence of the named inhibitor (Caco‐2 monolayers; [9]): 1.88 ± 0.11 ×10^−6 cm/s
Compound: O=C1C[C@@H](c2ccc(O)cc2)Oc2cc(O)cc(O)c21 [Naringenin, naringenin]
Modulatory effect on 7,8‐DHF transport (Caco‐2 monolayers; verapamil 100 μmol/L): −

Compound: O=c1c(O)c(-c2cc(O)c(O)c(O)c2)oc2cc(O)cc(O)c12 [Myricetin, myricetin]
Modulatory effect on 7,8‐DHF transport (Caco‐2 monolayers; verapamil 100 μmol/L): +

Compound: O=c1cc(-c2ccc(O)c(O)c2)oc2c([C@@H]3O[C@H](CO)[C@@H](O)[C@H](O)[C@H]3O)c(O)cc(O)c12 [Orientin]
Modulatory effect on 7,8‐DHF transport (Caco‐2 monolayers; verapamil 100 μmol/L): −

Compound: O=c1cc(-c2ccc(O)cc2)oc2cc(O)c([C@@H]3O[C@H](CO)[C@@H](O)[C@H](O)[C@H]3O)c(O)c12 [Isovitexin, isovitexin]
Modulatory effect on 7,8‐DHF transport (Caco‐2 monolayers; verapamil 100 μmol/L): +
ER of 7,8‐DHF in presence of the named inhibitor (Caco‐2 monolayers; [9]): 1.55
P app AB of 7,8‐DHF in presence of the named inhibitor (Caco‐2 monolayers; [9]): 1.27 ± 0.08 ×10^−6 cm/s
P app BA of 7,8‐DHF in presence of the named inhibitor (Caco‐2 monolayers; [9]): 1.97 ± 0.11 ×10^−6 cm/s

Compound: COc1ccc(-c2coc3cc(O)cc(O)c3c2=O)cc1 [Biochanin A, biochanin A]
Modulatory effect on 7,8‐DHF transport (Caco‐2 monolayers; verapamil 100 μmol/L): −

Compound: O=c1cc(-c2ccc(O)cc2)oc2c([C@@H]3O[C@H](CO)[C@@H](O)[C@H](O)[C@H]3O)c(O)cc(O)c12 [Vitexin, vitexin]
Uptake amount of 7,8‐DHF in Caco‐2 cells after treatment with the named inhibitor (Caco‐2 cells [2]; flavonoid: 7,8‐DHF 1:1 (equimolar), verapamil 100 μmol/L, end of 150 min transport): significant decrease
Modulatory effect on 7,8‐DHF transport (Caco‐2 monolayers; verapamil 100 μmol/L): −
P app AB of 7,8‐DHF in presence of the named inhibitor (Caco‐2 monolayers; [9]): 1.14 ± 0.16 ×10^−6 cm/s
P app BA of 7,8‐DHF in presence of the named inhibitor (Caco‐2 monolayers; [9]): 1.94 ± 0.03 ×10^−6 cm/s

Effect of combined flavonoid on retention of 7,8‐DHF in simulated in vitro digestion [1]: no significant effects were observed
Compound: O=c1c(O)c(-c2ccc(O)cc2)oc2cc(O)cc(O)c12 [Kaempferol, kaempferol]
Modulatory effect on 7,8‐DHF transport (Caco‐2 monolayers; verapamil 100 μmol/L): +

Compound: O=c1cc(-c2ccccc2)oc2cc(O)c(O)c(O)c12 [Baicalein, baicalein]
Modulatory effect on 7,8‐DHF transport (Caco‐2 monolayers; verapamil 100 μmol/L): +
ER of 7,8‐DHF in presence of the named inhibitor (Caco‐2 monolayers; [9]): 1.59

Recovery of 7,8-DHF ([3]; 60 min): 98.71±1.07%
Recovery of 7,8-DHF ([3]; 240 min): 97.26±2.17%
recovery at 60 min, 10 μmol/L [4]: 99.11 ± 0.57%
recovery at 240 min, 10 μmol/L [4]: 97.74 ± 0.42%
Metabolism of 7,8‐DHF in Caco‐2 cells (recovery vs blank HBSS) (Caco‐2 cells [5]): not metabolized
Uptake amount of 7,8‐DHF in Caco‐2 cells (Caco‐2 cells [2]; control, 7,8‐DHF without inhibitor, end of 150 min transport): 0.378 ± 0.018 nmol/mg protein
Papp A→B at 150 min, 10 μmol/L (in vitro): 1.19 ± 0.08 ×10⁻⁶ cm/s
Papp B→A at 150 min, 10 μmol/L (in vitro): 1.91 ± 0.13 ×10⁻⁶ cm/s
efflux ratio at 150 min, 10 μmol/L (in vitro): 1.61
Compound: O=c1cc(-c2ccccc2)oc2c(O)c(O)ccc12 [7,8‐DHF, 7,8‐Dihydroxyflavone]
Cell toxicity toward Caco‐2 cells (CCK‐8) (Caco‐2 cells [6]; 300 μmol/L): certain cell toxicity
Cell toxicity toward Caco‐2 cells (CCK‐8) (Caco‐2 cells [6]; concentration range 1~100 μmol/L): no significant cell toxicity
Half‐degradation time [7]: above 180 min
Oral bioavailability [8]: 4.6%

Reference: article PMC10630842, “Impact of dietary plant flavonoids on 7,8‐dihydroxyflavone transepithelial transport in human intestinal Caco‐2 cells” (Food Science & Nutrition, 2023)
